Laboratory results: patent US20040171089A1, “High-throughput screening assay for identifying substances capable of modulating cell survival and/or proliferation” (priority 2001, published 2004)
“Also recorded” adds a separate entry of the source.

Tests used:
[1] = test system: human primary microvascular endothelial cells; experiment: Fura-2 calcium imaging, microvascular endothelial cells; type: cell-based; conditions: microvascular endothelial cells; FIG. 2b: IPAG 10 μM, rimcazole 10-30 μM, (+)-pentazocine 10-30 μM
Method: Human adult dermal microvascular endothelial cells (catalogue number CC-2543; cells had been characterised by tests for cell type markers: positive for acetylated LDL uptake, positive for factor VIII related antigen, negative for alpha smooth muscle actin)
(§1) For calcium imaging experiments cells were plated onto poly-L-lysine coated coverslips (13 mm). Single cell imaging was performed utilizing a MiraCal Imaging facility (Life Science Resources, Cambridge, U.K.) with a Nikon Diaphot-TMD inverted epifluorescence microscope equipped with a ×40 oil immersion objective and Sutter filter wheel. The imager was equipped with a Lambert intensifier 1187 (Life Sciences Resources) providing a ×30 enhancement of the fluorescent signal, thus limiting phototoxicity.
(§2) Fura-2 acetoxymethyl ester (fura-2 AM) incubations with the cells were performed at 37° C. in a medium containing (in mM): 120 NaCl, 3.5 KCl, 0.4 KH2PO4, 5 NaHCO3, 1.2 Na2SO4, 15 glucose, 1.2 MgCl2, 1 CaCl2, and 20 TES [N-tris(hydroxymethyl) methyl-2-aminoethane sulphonic acid] pH adjusted to 7.4 with NaOH. Typically cells were incubated in 3 μM fura-2 AM for 25 min., which permitted sufficient accumulation of free fura-2 in the cell cytoplasm. Cells were then illuminated alternately at 340 and 380 nm with the emitted 505 nm light being detected by a photomultiplier. Free fura emits maximally when excited at 380 nm, whilst the calcium bound fura has a maximal emission when excited at 340 nm. Thus the ratio of emission when alternately excited at 340/380 nm is a measure of the calcium concentration in equilibrium with the chelator. Changes of intracellular calcium were quantified as the percentage increase of the fluorescent ratio (determined at ˜505 nm) obtained by exciting the test cells alternatively at 340 nm (optimal for calcium bound dye) and 380 nm.

MDA MB 468 cells [2] = experiment: Fura-2 calcium imaging, MDA MB 468 cells; type: cell-based, human; conditions: for % increase of cytosolic calcium (peak 340/380 nm fura-2 ratio): MDA 468 cells; for effect on cytosolic calcium levels (in words): MDA MB 468 cells, FIG. 2a: IPAG 1-10 μM, rimcazole 10-30 μM, (+)-SKF 10,047 10 μM, (+)-pentazocine 10-30 μM, ibogaine 10-50 μM
Method: Human mammary carcinoma (MDA MB 468) cells were obtained from ATCC, Manassas, Va., USA; catalogue number HTB-132; cells were grown in accordance with the manufacturer's instructions.
as §1, §2

[3] = test system: microvascular endothelial cells; conditions: equimolar, 10 micromolar, GB0007842.8, WO 0174359; cited from earlier work
[4] = test system: microvascular endothelial cells; experiment: MTS cell viability/proliferation assay, microvascular endothelial cells; type: cell-based, human; conditions: 1-10 μM
Method: (§3) This was carried out using an MTS assay (reagents from Promega Corporation, Madison Wis., USA) which is a modification of the MTT assay (as described in Jacobson et al, 1994 EMBO J Vol 13 pp1899-1910). The assay depends on conversion of the MTS tetrazolium compound to a coloured formazan product in metabolically active cells; it is therefore an assay of viable cell number. A decline in values implies cell killing as long as cell disappearance by apoptosis in untreated cell populations is absent or negligible (as with most healthy primary cell populations).
(§4) Cells were seeded in the range 1.5×10^5-1.8×10^5 cells per ml of culture medium in 96 well microtitre plates and allowed to attach in a humidifed atmosphere of 5% CO2 in air at 37 deg C. Drugs were added 18-24 hours later and cell viability/proliferation measured at time intervals up to 48-72 hours post-drug addition when the experiment was terminated. Mean (±SE) values at each time point were obtained from wells in triplicate.
(§5) Cell viability was measured as follows: 20 μl of MTS solution (Promega) was added to wells and incubated at 37 deg C. for 3 hours during which time a coloured formazan product is generated in viable cells. […] Viable cell number was then measured by reading absorbance at 490 nm in a Dynex microtitre plate reader. […]

MDA MB 468 cells [5] = experiment: MTS cell viability/proliferation assay, MDA MB 468 cells; type: cell-based, human; conditions: MDA 468 cells; 1-10 μM
Method: as §3, §4, §5

[6] = test system: human prostate epithelial cells; experiment: MTS cell viability/proliferation assay, prostate epithelial cells; type: cell-based; conditions: 1-10 μM
Method: as §3, §4, §5

adult dermal fibroblasts = experiment: MTS cell viability/proliferation assay, adult dermal fibroblasts; type: cell-based, human; conditions: 1-10 μM
Method: as §3, §4, §5

mammary epithelial cells = experiment: MTS cell viability/proliferation assay, mammary epithelial cells; type: cell-based, human; conditions: 1-10 μM
Method: Human mammary epithelial cells (catalogue number CC-2551; stain positive for cytokeratins 14, 18 and 19)
as §3
as §4, with “Mean (±SE) values at each time point were obtained from wells in triplicate.” left out
as §5

phospholipase C [7] = experiment: GFP-PH PLCdelta 1 relocalisation (PLC activation) in MDA MB 468 cells; type: cell-based, human; conditions: for relocalisation of GFP-PH PLC delta 1 from membrane to cytosol: 100 μM, approximately 10 minutes, DMEM with 10% fetal bovine serum
Description: The inventors introduced a recombinant plasmid vector encoding a hybrid protein comprised of the pleckstrin homology (PH) domain of phospholipase C (PLC) delta 1 fused green fluorescent protein (GFP) (GFP-PH PLCdelta 1) into MDA MB 468 mammary carcinoma cells. A standard transfection method (Fugene-6—Roche) was used. […] Cells were maintained in DMEM with 10% fetal bovine serum at 37 deg C. in 5% CO2 before and during exposure to sigma ligands which were present at a range of concentrations. Effects on the GFP-PH PLCdelta 1 protein were studied in two ways: by time lapse microscopy (using a Leica inverted fluorescence microscope and a Hammamatsu Orca charge-coupled device camera, linked to an Improvision Open Lab image processing workstation). This enabled the time course of effects to be determined. […] Control cell populations received drug vehicle alone and were analysed at the same time points.
GFP-PH PLC delta 1—expressing MDA MB 468 cells were exposed to sigma antagonists in 1 mM and 0 mM (nominally calcium-free) buffer (as used for the calcium imaging experiments, described above) and monitored by time lapse imaging as above.

phospholipase C [8] = experiment: Quantitative HPLC assay of inositol phosphates (IP3 levels) in MDA MB 468 cells; type: cell-based, human; conditions: [3H] inositol labelled cells
Description: The PH domain of PLC delta 1 has a higher affinity for the phosphoinositide IP3 compared to PIP2. IP3 is produced from PIP2 in response to activation of PLC. Since PIP2 is membrane-bound whereas IP3 is cytosolic, the activation of PLC can be visualised in living cells by the relocalisation of GFP-PH PLC delta 1 from membrane to cytosol. A proviso to this interpretation is that, in conditions where PIP2 levels decline relative to IP3, the net effect would be relocalisation of GFP-PH PLC delta 1 from membrane to cytosol. Thus, to exclude this possibility, quantitative phospholipid assays were performed. (In this analysis, cells were labelled with [^3H] inositol in inositol-free DMEM (In Vitrogen—Gibco) with dialysed FBS for 48 hours before exposure to sigma ligands. Cells were then lysed and subjected to quantitative HPLC assay). These assays confirmed that IP3 levels had risen in cells exposed to sigma antagonists (IP3 levels had risen to 240% and 166% of the level prior to provision of the test substance in response to IPAG and rimcazole respectively) but had not risen in cells exposed to sigma-1 or sigma-2 agonists. This confirmed activation of PLC by sigma antagonists.

[9] = test system: sigma-1 compared to sigma-2 sites; conditions: Abou-Gharbia et al 1993; cited from earlier work

Question: With `CC(C)=CCN1CCC2(C)c3cc(O)ccc3CC1C2C` (single isomer, unassigned; (+)) [(+)-pentazocine] as the molecule, how does the “increase in cytosolic calcium” value [1] read?
Answer: The value was “little or no effect”.

Question: What about the “% increase of cytosolic calcium (peak 340/380 nm fura-2 ratio)” value (MDA MB 468 cells [2]; 10 μM) of the same molecule?
Answer: The value was 5±7%.

Question: What about the “% increase of cytosolic calcium (peak 340/380 nm fura-2 ratio)” value (MDA MB 468 cells [2]; 30 μM) of the same molecule?
Answer: The value was −7±6%.

Question: What about the “effect on cytosolic calcium levels (in words)” value (MDA MB 468 cells [2]) of the same molecule?
Answer: The value was “little or no rise; also recorded: little or no effect”.

Question: What about the “prevention of rimcazole- and IPAG-induced death and cytostasis” value [3] of the same molecule?
Answer: Its value is “completely prevented”.

Question: Which “% increase of cytosolic calcium (peak 340/380 nm fura-2 ratio)” value (MDA MB 468 cells [2]; 30 μM) does the source give for `C[C@@H]1CN(CCCn2c3ccccc3c3ccccc32)C[C@H](C)N1` [rimcazole] here?
Answer: Its value is 92±8%.

Question: And the “effect on cytosolic calcium levels (in words)” value (MDA MB 468 cells [2])?
Answer: Its value is “increase cytosolic calcium levels”.

Question: What about the Cytotoxicity [4] of the same molecule?
Answer: The Cytotoxicity was “cytotoxic”.

Question: What about the Cytotoxicity (MDA MB 468 cells [5]) of the same molecule?
Answer: The Cytotoxicity was “cytotoxic”.

Question: And the Cytotoxicity [6]?
Answer: The Cytotoxicity was “not cytotoxic”.

Question: What about the Cytotoxicity (adult dermal fibroblasts) of the same molecule?
Answer: Its Cytotoxicity is “not cytotoxic”.

Question: And the Cytotoxicity (mammary epithelial cells)?
Answer: Its Cytotoxicity is “not cytotoxic”.

Question: And the “relocalisation of GFP-PH PLC delta 1 from membrane to cytosol” value (phospholipase C [7])?
Answer: The value was “pronounced relocalisation”.

Question: What about the “localisation of GFP-PH PLC delta 1” value (phospholipase C [7]; nominally calcium-free buffer (0 mM calcium)) of the same molecule?
Answer: Its value is “remained membrane-localised”.

Question: What about the “IP3 levels, % of the level prior to provision of the test substance” value (phospholipase C [8]) of the same molecule?
Answer: The value was 166%.

Question: What about the “selectivity for sigma-1 compared to sigma-2 sites” value [9] of the same molecule?
Answer: The value was “approximately 5 fold”.

Question: For (+)-SKF 10,047, which “effect on cytosolic calcium levels (in words)” value (MDA MB 468 cells [2]) is on record?
Answer: Its value is “little or no effect”.

Question: And the “effect on cytosolic calcium levels (in words)” value (MDA MB 468 cells [2]; listed as (+)-SKF-10,047)?
Answer: Its value is “little or no rise”.

Question: Which “effect on cytosolic calcium levels (in words)” value (MDA MB 468 cells [2]) does the source give for ibogaine here?
Answer: Its value is “little or no rise; also recorded: fails to induce a significant rise”.

Question: What about the “relocalisation of GFP-PH PLC delta 1 from membrane to cytosol” value (phospholipase C [7]) of the same molecule?
Answer: Its value is “failed to produce this effect”.
